The test system of the assay is INS-1E rat insulinoma, insulin secretion, 5 mM glucose. As to the kind of experiment: dose-response inhibition of insulin secretion, INS-1E rat insulinoma line, 5 mM glucose, cell-based (AID 1117331).

SMILES strings stand for the structures. Calls of active or inactive are those of the source. The rule behind the calls is not given here.

What is called IC50 is the concentration that inhibits the measured activity by half. Take `Cc1ccc([N+](=O)[O-])[c]2c1[O][Hg]2`: the IC50 is > 33.3 µM (inactive).

Source of the values: PubChem BioAssay AID1117331.
